According to patent US8501713B2, “Drug combinations for the treatment of duchenne muscular dystrophy” (Summit Corporation PLC, priority 2007, dated 2013):

System: Utrophin A promoter linked to a luciferase reporter gene
Experiment: Luciferase reporter assay (murine H2K cells)
Assay type: cell-based
Conditions: for Activity: luciferase reporter assay in murine H2K cells, classified relative to control; for activity at 10 µM: Mus musculus, H2K mdx, luciferase level relative to control, H2K/mdx/Utro A reporter cells, compound 10 μM final concentration, read-out: Activity
Outline: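 Compound at 10 μM final was applied for 48 hrs to plated H2K mdx myoblasts (33° C, 10% CO2, interferon-containing medium) bearing a luciferase gene under the utrophin A promoter. Luminescence from lysed cells served as read-out.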

Row | SMILES | Activity | activity at 10 µM
1 | Nc1cccc(-c2nc3ccccc3s2)c1 [Example 602] | +++ (Between 301% and 400% relative to control) | 
2 | Nc1ccc2sc(-c3ccc(Cl)c(Cl)c3)nc2c1 [Example 284, 2-(3,4-dichlorophenyl)benzo[d]thiazol-5-amine] |  | > 401%
3 | O=C(CC(F)(F)F)Nc1ccc2oc(-c3ccc(Cl)cc3)nc2c1 [Example 345, N-(2-(4-chlorophenyl)benzo[d]oxazol-5-yl)-3,3,3-trifluoropropanamide] |  | 301 to 400%
4 | Cc1ccc2sc(NC(=O)NC(=O)c3c(Cl)cccc3Cl)nc2c1 [Example 462] | + (Up to 200% relative to control) | 
5 | CCCCC(=O)Nc1ccc2oc(-c3ccc(C(F)(F)F)cc3)nc2c1 [Example 126, N-(2-(4-(trifluoromethyl)phenyl)benzo[d]oxazol-5-yl)pentanamide] |  | < 200%
6 | O=[N+]([O-])c1ccc2nc(-c3ccccc3O)[nH]c2c1 [Example 106, 2-(6-nitro-1H-benzo[d]imidazol-2-yl)phenol] |  | < 200%
7 | COc1ccccc1C(=O)Nc1ccc2oc(-c3ccccc3)nc2c1 [Example 26, 2-methoxy-N-(2-phenylbenzo[d]oxazol-5-yl)benzamide] |  | < 200%
8 | O=C(Nc1ccc2oc(-c3ccc(Cl)cc3)nc2c1)C1CCCC1 [Example 346, N-(2-(4-chlorophenyl)benzo[d]oxazol-5-yl)cyclopentanecarboxamide] |  | < 200%
9 | CCCC(=O)Nc1ccc2oc(-c3ccccc3F)nc2c1 [Example 242, N-(2-(2-fluorophenyl)benzo[d]oxazol-5-yl)butyramide] |  | < 200%
10 | c1csc(-c2nc3cc4ccccc4cc3[nH]2)c1 [Example 561] | +++ (Between 301% and 400% relative to control) | 
11 | COc1ccc(-c2nc3ccccc3s2)cc1 [Example 582] | ++++ (Above 401% relative to control) | 
12 | Cc1ccc(-c2nc3c(NC(=O)C(C)C)cccc3o2)cc1 [Example 236, N-(2-p-tolylbenzo[d]oxazol-4-yl)isobutyramide] |  | < 200%
13 | CC(C)C(=O)Nc1ccc2cc(-c3ccccc3)[nH]c2c1 [Example 375, N-(2-phenyl-1H-indol-6-yl)isobutyramide] |  | < 200%
14 | CCCC(=O)Nc1ccc2[nH]c(-c3ccccc3)nc2c1 [Example 194, N-(2-phenyl-1H-benzo[d]imidazol-5-yl)butyramide] |  | 201 to 300%
15 | Clc1ccc(OCc2nc3ccccc3[nH]2)c(Cl)c1 [Example 461] | +++ (Between 301% and 400% relative to control) | 
16 | O=S(=O)(c1ccc(-c2nc3ccccc3s2)cc1)N1CCCCC1 [Example 516] | ++ (Between 201% and 300% relative to control) | 
17 | O=C(Cc1ccccc1)Nc1ccc2oc(Cc3ccccc3)nc2c1 [Example 165, N-(2-benzylbenzo[d]oxazol-5-yl)-2-phenylacetamide] |  | < 200%
18 | CCCC(=O)Nc1ccc2oc(-c3cccc(C(F)(F)F)c3)nc2c1 [Example 225, N-(2-(3-(trifluoromethyl)phenyl)benzo[d]oxazol-5-yl)butyramide] |  | < 200%
19 | Nc1ccc2oc(-c3ccccc3O)nc2c1 [Example 38, 2-(5-aminobenzo[d]oxazol-2-yl)phenol] |  | 301 to 400%
20 | CCS(=O)(=O)c1ccc2oc(-c3cccc(Cl)c3Cl)nc2c1 [Example 304, 2-(2,3-diChlorophenyl)-5-(ethylsulfonyl)benzo[d]oxazole] |  | < 200%
21 | Nc1ccc2oc(-c3ccc4ccccc4n3)nc2c1 [Example 402, 2-(quinolin-2-yl)benzo[d]oxazol-5-amine] |  | 301 to 400%
22 | CCS(=O)(=O)c1ccc2oc(-c3ccc(-c4ccccc4)cc3)nc2c1 [Example 426, 2-(biphenyl-4-yl)-5-(ethylsulfonyl)benzo[d]oxazole] |  | < 200%
23 | CCn1c(C)nc2cc(-c3ccccc3)ccc21 [Example 634] | +++ (Between 301% and 400% relative to control) | 
24 | COc1ccc(OCc2nc3ccccc3n2C)cc1 [Example 528] | ++ (Between 201% and 300% relative to control) | 
